Test results published in patent US20240115571A1, “COMBINATION THERAPY FOR TREATING ABNORMAL CELL GROWTH” (priority 2021, published 2024).

Tested on: EGFR mutant H1975 osimertinib-resistant (Dell9/T790M/C797S) NSCLC model
Experiment: H1975 osimertinib-resistant xenograft tumor mouse study
Type: in vivo, Balb/c nude mice
Settings: VS-6766 0.3 mg/kg PO QD; osimertinib 2.5 mg/kg QD
Description: EGFR mutant H1975 NSCLC tumor cells were obtained from ATCC, EGFR mutant H1975 osimertinib-resistant NSCLC tumor cells were generated by Wuxi AppTec, and Balb/c nude mice were obtained from Beijing Vital River Laboratory Animal Technology. Tumor challenge was initiated by subcutaneous inoculation of 5×10^6 tumor cell suspensions into the right flank of recipient mice.
Tumor sizes (mm^3) and body weights were measured 2 times per week for the duration of the study. At the time of routine monitoring, the animals were checked for any effects of tumor growth and treatments on normal behavior such as mobility, food and water consumption (by looking only), and body weight gain/loss, eye/hair matting and any other abnormal effect.

CNS(=O)(=O)Nc1nccc(Cc2c(C)c3ccc(Oc4ncccn4)cc3oc2=O)c1F [VS-6766]
survival compared to osimertinib single agent: increased
tumor growth inhibition compared to osimertinib single agent: increased tumor growth inhibition
